Source: patent US20040186098A1 (Amgen Inc., priority 1997, published 2004)

Tests used:
outer hair cells (OHC) = test: Intramiddle ear neomycin-induced ototoxicity, compound given into the middle ear, outer hair cell loss; assay type: in vivo, guinea pig; settings: for hair cells (protected) after neomycin: 5 mg neomycin, 14 days after second surgery
Method: Twenty guinea pigs used in this study were divided into two groups: 10 animals received 10 ng and 10 received 1 ng of the sensorineurotrophic compound.
Sensorineurotrophic compound stock A: A stock solution of sensorineurotrophic compound at 1 mg/10 ml in 100% ethanol was prepared and then diluted and mixed in Intralipid at 10 ng/100 μl.
Sensorineurotrophic compound stock B: A stock solution of sensorineurotrophic compound at 1 mg/100 ml in 100% ethanol was prepared and then diluted and mixed in 20% Intralipid at 1 ng/100 μl.
Animals were anesthetized with an intramuscular injection of a mixture of ketamine (80 mg/kg) and xylazine (4 mg/kg). Through a post-auricular incision, the right bulla was identified. A hole was drilled to open the middle ear cavity (care was taken not to injure the tympanic annulus or ossicles). A piece of gelfoam (˜2 mm^3) soaked with the sensorineurotrophic compound solution was inserted into the round window niche. The remaining sensorineurotrophic compound solution (˜100 μl) then was injected into the middle ear cavity. In the 10 ng dose group, 100 μl of sensorineurotrophic compound stock A was administered; and in the 1 ng dose group, 100 μl of sensorineurotrophic compound stock B was administered to the middle ear cavity. The hole was covered with a piece of clear plastic sheet which was stuck on the skull with a superglue. The incision was closed with clips. The same procedure was performed at the left bulla, but 100 μl of vehicle solution instead of sensorineurotrophic compound solution was administered. The animals were maintained in the prone position until they woke up to ensure filling of the middle ear cavity.
After two days, the animals received a second middle ear administration of sensorineurotrophic compound or vehicle together with neomycin. Solutions were prepared for the two groups of animals as follows:
Solution A: Neomycin was dissolved in sensorineurotrophic compound stock A described above. The final concentration of neomycin was 5 mg and the sensorineurotrophic compound concentration was 10 ng in a 100 μl vehicle solution.
Solution B: Neomycin was dissolved in sensorineurotrophic compound stock B described above. The final concentration of neomycin was 5 mg and the concentration of sensorineurotrophic compound was 1 ng in a 100 μl vehicle solution.
Solution C: Neomycin was dissolved in 20% Intralipid to a final concentration of 5 mg in 100 μl vehicle.
The plastic cover sheet on the bulla window was removed and the middle ear cavity was exposed. The old sensorineurotrophic compound or vehicle was sucked off and the old gelfoam was removed from the round window niche. A piece of gelfoam with fresh stock solution containing sensorineurotrophic compound and neomycin was administered to the round window niche, and the remaining solution (˜100 μl, solution A for the 10 ng dose group and solution B for the 1 ng dose group, respectively) was injected into the middle ear cavity of the right bulla.
Solution C (100 μl) was administered to the left ear for both groups in the same way.
Fourteen days after the second surgery, animals were perfused transcardially with a PBS flush followed by a fixative of 4% paraformaldehyde in 0.1M PBS. Immediately following the perfusion, the temporal bone was removed from the head. The bulla was opened and the cochlea was exposed. The apex was opened and the membrane of the round and oval windows was punched. The fixative solution was gently infused into the perilymphatic space through the apex hole and then allowed to flow out from windows. Then the cochleae were post-fixed in the same fixative solution for at least one day.
To identify and count hair cells in the organ of Corti, a direct immunostaining method was used to label the actin present naturally in the stereocilia bundles of the hair cells. The cochlea was dissected and the perilymphatic space was fully exposed. […]

[1] = tested on: hair cells in rat organ of Corti explant; settings: Compound I 0.05 pM, pretreatment at plating, cisplatin exposure day 2 to day 4; untreated 17%
hair cells = test: Intramiddle ear neomycin-induced ototoxicity, compound given systemically (subcutaneous), hair cell loss; assay type: in vivo, guinea pig; settings: 10 mg s.c. at day 0, 2 and 7
Method: Twenty guinea pigs were treated either with sensorineurotrophic compound or vehicle prior to administration of the ototoxin. Ten of the guinea pigs were subcutaneously injected with freshly made sensorineurotrophic compound solution. On the day of injection, 100 mg of the sensorineurotrophic compound was dissolved in 1 ml of ethanol, then 20% of the Intralipids solution was added to make a final volume of 3 ml. The final sensorineurotrophic compound concentration was 10 mg/0.3 ml. Each animal was subcutaneously injected with 0.3 ml of the sensorineurotrophic compound solution at day 0, day 2 and day 7. Another 10 animals were subcutaneously injected with 0.3 ml of the vehicle (20% Intralipids), individually at day 0, day 2 and day 7.
At day 2, guinea pigs used in this study were administered neomycin or neomycin vehicle in the middle ear.
Animals were anesthetized with intramuscular injection of a mixture of ketamine (80 mg/kg) and xylazine (4 mg/kg). Through a post-auricular incision, the right bulla was identified. A hole was drilled to open the middle ear cavity (care was taken not to injure the tympanic annulus or ossicles). A piece of gelfoam (˜2 mm^3) was soaked with neomycin solution (fresh made at a concentration of 50 mg/ml) and was inserted into the round window niche. The remaining neomycin solution (˜100 μl) was then injected into the middle ear cavity. […]

`CCC(C)(C)C(=O)C(=O)N1CCC[C@H]1C(=O)OCCCc1cccnc1` [Compound I] was tested, and the “hair cells (protected) after neomycin” value (outer hair cells (OHC); 1 ng in the middle ear) was roughly 70%, the “Neomycin-induced OHC Loss (%), Right (Treated), mean ± SEM” value (outer hair cells (OHC); 1 ng intramiddle ear, turn-1, n = 7) was 8.85 ± 1.47% and the “Neomycin-induced OHC Loss (%), Right (Treated), mean ± SEM” value (outer hair cells (OHC); 1 ng intramiddle ear, turn-2, n = 7) was 4.01 ± 0.53%. The “Neomycin-induced OHC Loss (%), Right (Treated), mean ± SEM” value (outer hair cells (OHC); 1 ng intramiddle ear, turn-3, n = 7) was 0.92 ± 0.10%, the “Neomycin-induced OHC Loss (%), Right (Treated), mean ± SEM” value (outer hair cells (OHC); 1 ng intramiddle ear, turn-4, n = 7) was 1.67 ± 1.25% and the “Neomycin-induced OHC Loss (%), Right (Treated), mean ± SEM” value (outer hair cells (OHC); 1 ng intramiddle ear, whole cochlea, n = 7) was 3.86 ± 0.37%. For the same compound, the “hair cells (protected) after neomycin” value (outer hair cells (OHC); 10 ng in the middle ear) was “around 75%”, the “Neomycin-induced OHC Loss (%), Right (Treated), mean ± SEM” value (outer hair cells (OHC); 10 ng intramiddle ear, turn-1, n = 9) was 15.47 ± 6.05% and the “Neomycin-induced OHC Loss (%), Right (Treated), mean ± SEM” value (outer hair cells (OHC); 10 ng intramiddle ear, turn-2, n = 9) was 13.93 ± 10.75%. For the same compound, the “Neomycin-induced OHC Loss (%), Right (Treated), mean ± SEM” value (outer hair cells (OHC); 10 ng intramiddle ear, turn-3, n = 9) was 11.64 ± 10.85%, the “Neomycin-induced OHC Loss (%), Right (Treated), mean ± SEM” value (outer hair cells (OHC); 10 ng intramiddle ear, turn-4, n = 9) was 4.69 ± 2.85% and the “Neomycin-induced OHC Loss (%), Right (Treated), mean ± SEM” value (outer hair cells (OHC); 10 ng intramiddle ear, whole cochlea, n = 9) was 11.44 ± 7.27%. The “protection of hair cells against ototoxicity, in words” value (outer hair cells (OHC); 10 ng or 1 ng in the middle ear, neomycin) was “protect completely hair cells against ototoxicity”, the “loss of hair cells, in words (FIGS. 4A and 4B)” value (outer hair cells (OHC); all animals at 1 ng, all but one at 10 ng, neomycin and vehicle: almost complete loss) was “very minimal loss of hair cells” and the surviving hair cells [1] was 41.4%. For the same compound, the “difference in the loss of hair cells between vehicle and treated animals” value (hair cells; 5 mg neomycin middle ear at day 2, day 16) was roughly 31% and the hair cell loss (hair cells; 5 mg neomycin middle ear, vehicle animals about 75%) was “about 45%”.
